Data from US20240226228A1, “ANTIMICROBIAL PEPTOID HAVING IMPROVED SELECTIVITY AND ANTIMICROBIAL COMPOSITION COMPRISING SAME” (priority 2021, published 2024).
Values after ≈ are worked out from the molar mass of the structure shown. Like-named read-outs stand apart in the source and are kept apart here. Where a SMILES comes first, the peptide text is derived from it. [ ]: non-standard residue; d: D form. Gly(N(CH2)2(3-indolyl)) = O=C(O)CNCCc1c[nH]c2ccccc12; Nspe = C[C@H](NCC(=O)O)c1ccccc1; Nlys = NCCCCNCC(=O)O

Tests used:
[1] = HPLC to confirm peptoid decomposition after counter ion substitution; format: physicochemical; details: HPLC at 220 nm; HCl and AcOH
Procedure: FIGS. 76 to 83 are the HPLC results for Peptoids 1, 10, 11, 14, 15, 29, 32 and 37 of the present inventive concept to confirm the decomposition of the peptoids after counter ion substitution using (a) HCl and (b) AcOH.
Referring to FIGS. […], HPLC was performed for Peptoids 1, 10, 11, 14, 15, 29, 32 and 37 of the present inventive concept. Since the chloride (HCl) is a stronger acid than TFA, it can decompose acid-vulnerable peptoid compounds.

E. coli ATCC25922 = details: for antimicrobial activity (in words): E. coli and S. aureus, compared to Peptoid 1, parent peptoid or TFA salt as stated
Method in brief: (§1)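 Cation-adjusted MHB2 cultures (18 h, subcultured 4 h) adjusted to 2×10^5–5×10^5 CFU/mL in medium with 0.02% BSA and 0.001% acetic acid.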

S. aureus ATCC 25923 = tested on: S. aureus ATCC 25923
Method in brief: as §1

red blood cells = test: Hemolysis assay; format: cell-based, Sprague-Dawley mouse
Method in brief: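 Peptoid is mixed with 10% (v/v) PBS-washed erythrocytes (male Sprague-Dawley […], 13 weeks) and held 1 h at 37 °C. Hemolysis is calculated from 540 nm absorbance of the supernatant, with PBS as 0% and Triton X-100 as 100%.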

[2] = Tables 11-13, 24 hours at 37° C., maximum concentration 25 μM
[3] = Table 18, TFA salt vs counter ion-substituted (HCl, AcOH) peptoids

SMILES	peptoid decomposition after counter ion substitution (in words) [1]	MIC E. coli ATCC25922 (E. coli ATCC25922; ATCC25922)	antimicrobial activity (in words) (E. coli ATCC25922)	MIC E. coli ATCC25922 (E. coli ATCC25922; [2])	MIC S. aureus ATCC 25923 (S. aureus ATCC 25923; [3])	MIC S. aureus ATCC 25923 (S. aureus ATCC 25923; [2])	MIC E. coli ATCC25922 (E. coli ATCC25922; [3])	MIC S. aureus ATCC 25923 (S. aureus ATCC 25923; ATCC 25923)	HC10 (red blood cells)	HC50 (red blood cells)	Hmax (100 μM) (red blood cells)
C[C@@H](c1ccccc1)N(CC(=O)N(CCCCN)CC(=O)N(CC(=O)N(CC(=O)N(CCCCN)CC(=O)N(CC(=O)N(CC(=O)N(CCCCN)CC(N)=O)[C@@H](C)c1ccccc1)[C@@H](C)c1ccccc1)[C@@H](C)c1ccccc1)[C@@H](C)c1ccccc1)C(=O)CN(C(=O)CN(CCCCN)C(=O)CN(CCc1c[nH]c2ccccc12)C(=O)CNCCc1c[nH]c2ccccc12)[C@@H](C)c1ccccc1 [Peptoid 37, H-NhTrp-NhTrp-NLys-Nspe-Nspe-NLys-Nspe-Nspe-NLys-Nspe-Nspe-NLys-NH2] (H-[Gly(N(CH2)2(3-indolyl))][Gly(N(CH2)2(3-indolyl))][Nlys][Nspe][Nspe][Nlys][Nspe][Nspe][Nlys][Nspe][Nspe][Nlys]-NH2)	almost no peptoid decomposition occurred	3.1 µM (≈ 5.88 µg/mL)	antimicrobial activity was reduced	3.1 µM (≈ 5.88 µg/mL)	1.6 µM	1.6 µM (≈ 3.04 µg/mL)					
C[C@@H](c1ccccc1)N(CC(N)=O)C(=O)CN(C(=O)CN(CCCCN)C(=O)CN(C(=O)CN(C(=O)CN(CCCCN)C(=O)CN(C(=O)CN(C(=O)CN(CCCCN)C(=O)CN(CCc1c[nH]c2ccccc12)C(=O)CN(C(=O)CNCCCCN)[C@@H](C)c1ccccc1)[C@@H](C)c1ccccc1)[C@@H](C)c1ccccc1)[C@@H](C)c1ccccc1)[C@@H](C)c1ccccc1)[C@@H](C)c1ccccc1 [Peptoid 10, H-NLys-Nspe-NhTrp-NLys-Nspe-Nspe-NLys-Nspe-Nspe-NLys-Nspe-Nspe-NH2]	almost no peptoid decomposition occurred	3.1 µM (≈ 5.76 µg/mL)	antimicrobial activity was reduced	3.1 µM (≈ 5.76 µg/mL)	0.8 µM	1.6 µM (≈ 2.97 µg/mL)					
C[C@@H](c1ccccc1)N(CC(N)=O)C(=O)CN(C(=O)CN(CCCCN)C(=O)CN(C(=O)CN(CCc1c[nH]c2ccccc12)C(=O)CN(CCCCN)C(=O)CN(CCc1c[nH]c2ccccc12)C(=O)CN(C(=O)CN(CCCCN)C(=O)CN(C(=O)CN(C(=O)CNCCCCN)[C@@H](C)c1ccccc1)[C@@H](C)c1ccccc1)[C@@H](C)c1ccccc1)[C@@H](C)c1ccccc1)[C@@H](C)c1ccccc1 [Peptoid 15, H-NLys-Nspe-Nspe-NLys-Nspe-NhTrp-NLys-NhTrp-Nspe-NLys-Nspe-Nspe-NH2]	almost no peptoid decomposition occurred		antimicrobial activity was reduced	6.3 µM (≈ 12 µg/mL)		1.6 µM (≈ 3.04 µg/mL)	3.1 µM	1.6 µM (≈ 3.04 µg/mL)			
C[C@@H](c1ccccc1)N(CC(N)=O)C(=O)CN(C(=O)CN(CCCCN)C(=O)CN(C(=O)CN(C(=O)CN(CCCCN)C(=O)CN(CCc1c[nH]c2ccccc12)C(=O)CN(CCc1c[nH]c2ccccc12)C(=O)CN(CCCCN)C(=O)CN(CCc1c[nH]c2ccccc12)C(=O)CN(CCc1c[nH]c2ccccc12)C(=O)CNCCCCN)[C@@H](C)c1ccccc1)[C@@H](C)c1ccccc1)[C@@H](C)c1ccccc1 [Peptoid 21]				6.3 µM (≈ 12.4 µg/mL)		1.6 µM (≈ 3.16 µg/mL)			23.2 µM	64.9 µM	83.7 ± 2.0%
C[C@@H](c1ccccc1)N(CC(N)=O)C(=O)CN(C(=O)CN(CCCCN)C(=O)CN(C(=O)CN(C(=O)CN(CCCCN)C(=O)CN(C(=O)CN(CCCCN)C(=O)CN(CCCCN)C(=O)CN(CCc1c[nH]c2ccccc12)C(=O)CN(CCc1c[nH]c2ccccc12)C(=O)CNCCCCN)[C@@H](C)c1ccccc1)[C@@H](C)c1ccccc1)[C@@H](C)c1ccccc1)[C@@H](C)c1ccccc1 [Peptoid 34]				25 µM (≈ 46.6 µg/mL)		3.1 µM (≈ 5.78 µg/mL)			>100/>100 μM	>100/>100 μM	8.5 ± 1.1%
C[C@@H](c1ccccc1)N(CC(N)=O)C(=O)CN(C(=O)CN(CCCCN)C(=O)CN(C(=O)CN(CCCCN)C(=O)CN(CCCCN)C(=O)CN(C(=O)CN(C(=O)CN(CCCCN)C(=O)CN(CCc1c[nH]c2ccccc12)C(=O)CN(CCc1c[nH]c2ccccc12)C(=O)CNCCCCN)[C@@H](C)c1ccccc1)[C@@H](C)c1ccccc1)[C@@H](C)c1ccccc1)[C@@H](C)c1ccccc1 [Peptoid 33]				12.5 µM (≈ 23.3 µg/mL)		3.1 µM (≈ 5.78 µg/mL)			>100/>100 μM	>100/>100 μM	5.0 ± 0.2%
C[C@@H](c1ccccc1)N(CC(=O)N(CCc1c[nH]c2ccccc12)CC(N)=O)C(=O)CN(CCCCN)C(=O)CN(C(=O)CN(C(=O)CN(CCCCN)C(=O)CN(C(=O)CN(C(=O)CN(CCCCN)C(=O)CN(C(=O)CN(C(=O)CNCCCCN)[C@@H](C)c1ccccc1)[C@@H](C)c1ccccc1)[C@@H](C)c1ccccc1)[C@@H](C)c1ccccc1)[C@@H](C)c1ccccc1)[C@@H](C)c1ccccc1 [Peptoid 7] (H-[Nlys][Nspe][Nspe][Nlys][Nspe][Nspe][Nlys][Nspe][Nspe][Nlys][Nspe][Gly(N(CH2)2(3-indolyl))]-NH2)				6.3 µM (≈ 11.7 µg/mL)		3.1 µM (≈ 5.76 µg/mL)			7.8 µM	23.8 µM	94.1 ± 4.3%
C[C@@H](c1ccccc1)N(CC(N)=O)C(=O)CN(C(=O)CN(CCCCN)C(=O)CN(C(=O)CN(CCc1c[nH]c2ccccc12)C(=O)CN(CCCCN)C(=O)CN(CCc1c[nH]c2ccccc12)C(=O)CN(C(=O)CN(CCCCN)C(=O)CN(C(=O)CN(C(=O)CNCCCCN)[C@@H](C)c1ccccc1)[C@@H](C)c1ccccc1)[C@@H](C)c1ccccc1)[C@@H](C)c1ccccc1)[C@@H](C)c1ccccc1 [Peptoid 15-1]					3.1 µM		6.3 µM		50.4 µM	> 100 µM	33.4 ± 9.7%
C[C@@H](c1ccccc1)N(CC(N)=O)C(=O)CN(C(=O)CN(CCCCN)C(=O)CN(C(=O)CN(C(=O)CN(CCCCN)C(=O)CN(C(=O)CN(C(=O)CN(CCCCN)C(=O)CN(Cc1ccccc1)C(=O)CN(Cc1ccccc1)C(=O)CNCCCCN)[C@@H](C)c1ccccc1)[C@@H](C)c1ccccc1)[C@@H](C)c1ccccc1)[C@@H](C)c1ccccc1)[C@@H](C)c1ccccc1 [Peptoid 46]				6.3 µM (≈ 11.3 µg/mL)		0.8 µM (≈ 1.43 µg/mL)			6.9 µM	36.5 µM	90.8 ± 2.7%
C[C@@H](c1ccccc1)N(CC(=O)N(CCCCN)CC(=O)N(CC(=O)N(CC(=O)N(CCCCN)CC(=O)N(CC(=O)N(CC(=O)N(CCCCN)CC(N)=O)[C@@H](C)c1ccccc1)[C@@H](C)c1ccccc1)[C@@H](C)c1ccccc1)[C@@H](C)c1ccccc1)C(=O)CN(C(=O)CN(CCCCN)C(=O)CN(CCc1c[nH]c2ccccc12)C(=O)CNCCc1c[nH]c2ccccc12)[C@@H](C)c1ccccc1 [Peptoid 37-1] (H-[Gly(N(CH2)2(3-indolyl))][Gly(N(CH2)2(3-indolyl))][Nlys][Nspe][Nspe][Nlys][Nspe][Nspe][Nlys][Nspe][Nspe][Nlys]-NH2)					3.1 µM		6.3 µM		14.4 µM	56.5 µM	86.6 ± 5.7%
C[C@@H](c1ccccc1)N(CC(=O)N(CCCCN)CC(=O)N(CC(=O)N(CC(=O)N(CCCCN)CC(=O)N(CC(=O)N(CC(=O)N(CCCCN)CC(=O)N(CCc1c[nH]c2ccccc12)CC(=O)N(CCc1c[nH]c2ccccc12)CC(N)=O)[C@@H](C)c1ccccc1)[C@@H](C)c1ccccc1)[C@@H](C)c1ccccc1)[C@@H](C)c1ccccc1)C(=O)CN(C(=O)CNCCCCN)[C@@H](C)c1ccccc1 [Peptoid 11-1] (H-[Nlys][Nspe][Nspe][Nlys][Nspe][Nspe][Nlys][Nspe][Nspe][Nlys][Gly(N(CH2)2(3-indolyl))][Gly(N(CH2)2(3-indolyl))]-NH2)					3.1 µM		3.1 µM		10.1 µM	21.5 µM	113.9 ± 1.7%
